Measured values as given in patent US20260022143A1, “Cyclic Peptide Inhibitors of IL-23” (JANSSEN PHARMACEUTICA NV, priority 2022, published 2026).
Starred links: 1 amine or outer side, 2 acyl side, 3 side chain; linkers in the order of their positions; H or OH if unused. Positions of bridges follow the written chain, without caps; N, C: chain ends. Non-standard residues stand in square brackets, D forms with d. Residues, ends and D or L forms follow the SMILES beside them. *: point of attachment. Trp(7-Me) = Cc1cccc2c(C[C@H](N)C(=O)O)c[nH]c12; Hexanoyl(6-NMe3+) = C[N+](C)(C)CCCCCC(=O)*; X1 = CN(CC[C@H](N[*:1])C(=O)[*:2])[*:3]; 2Nal = N[C@@H](Cc1ccc2ccccc2c1)C(=O)O; AEF = NCCOc1ccc(C[C@H](N)C(=O)O)cc1; X19 = C[N+](C)(C)C[C@@H](CC(=O)O)N*; Piperazinyl(4-Me) = CN1CCN(*)CC1; 3Pal = N[C@@H](Cc1cccnc1)C(=O)O; Lys(Me) = CNCCCC[C@H](N)C(=O)O; X5 = C[N+](C)(C)CCOCCOCC(=O)*; Pen = CC(C)(S)[C@H](N)C(=O)O; Thp = NC1(C(=O)O)CCOCC1; Dap = NC[C@H](N)C(=O)O; X3 = C[N+](C)(C)CCCCC*; Me2NCH2CH2 = CN(C)CC*; X25 = COCCOCCN(C)*; Sar = CNCC(=O)O

Legend:
IL-23R = biological target: T1, IL-23R (Homo sapiens, UniProt Q5VWK5); test: IL23R Reporter Assay; assay type: cell-based; details: HEK293 cells containing IL-23R, IL-12RP1 and STAT-inducible firefly luciferase reporter; 10 ng/mL IL-23 (EC90); 5 h at 37° C.; read-out: IL23R Reporter Assay
T1 construct: host or cells: HEK293
T1 sequence (Q5VWK5 24-629): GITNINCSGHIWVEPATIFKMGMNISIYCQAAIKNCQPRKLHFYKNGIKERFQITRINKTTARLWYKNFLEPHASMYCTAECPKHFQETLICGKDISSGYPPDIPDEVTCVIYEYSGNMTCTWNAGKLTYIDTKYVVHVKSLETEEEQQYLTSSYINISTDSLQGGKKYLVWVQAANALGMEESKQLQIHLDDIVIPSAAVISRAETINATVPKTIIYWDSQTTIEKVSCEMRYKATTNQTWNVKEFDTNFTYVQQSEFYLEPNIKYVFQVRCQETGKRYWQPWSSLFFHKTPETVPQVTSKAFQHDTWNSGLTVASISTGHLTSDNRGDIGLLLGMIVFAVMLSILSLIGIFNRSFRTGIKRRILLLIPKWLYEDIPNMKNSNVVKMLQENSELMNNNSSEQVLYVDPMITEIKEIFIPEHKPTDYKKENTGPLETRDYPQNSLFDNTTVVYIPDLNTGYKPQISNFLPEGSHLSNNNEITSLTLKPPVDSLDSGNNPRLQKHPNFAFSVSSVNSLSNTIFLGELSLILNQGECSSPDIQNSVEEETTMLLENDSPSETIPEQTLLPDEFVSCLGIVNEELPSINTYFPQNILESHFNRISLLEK

[1] = Exposed Polar Surface Area (EPSA); assay type: physicochemical; details: SFC on Chirex 3014 column; sample 1 mM DMSO stock; read-out: EPSA
Procedure, shortened: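 Chirex 3014 column, 35 °C, 4 mL/min; CO2/MeOH + 20 mM NH4 formate, 5→60% modifier at 20%/min. UV/MS detection. EPSA (Å^2) from retention time vs 8-standard calibration line; duplicates; 1 mM DMSO stock injected undiluted.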

IC50 (IL-23R) [nM]	EPSA [1] [A^2]	Structure (SMILES)
5.2	145	Cc1cccc2c(C[C@@H]3NC(=O)[C@H]([C@@H](C)O)NC(=O)[C@H](CC(=O)N(C)C)NC(=O)[C@@H](NC(=O)CCCCC[N+](C)(C)C)C(C)(C)SSC(C)(C)[C@@H](C(=O)N[C@@H](Cc4ccc(OCCCCC[N+](C)(C)C)cc4)C(=O)N[C@@H](Cc4ccc5ccccc5c4)C(=O)NC4(C(=O)N[C@@H](CCC(=O)N(C)C)C(=O)N[C@@H](CC(N)=O)C(=O)N[C@@H](Cc5cccnc5)C(=O)N(C)CC(=O)N(C)C)CCOCC4)NC(=O)[C@H](CCC(=O)N(C)C)NC3=O)c[nH]c12 [compound 101, 5cpaCO-Pen(3)-N(N(Me)2)-T-7MeW-Q(N(Me)2)-Pen(3)-TMAPF-2Nal-THP-Q(N(Me)2)-N-3Pya-Sar-CON(Me)2] ({Hexanoyl(6-NMe3+)}-[Pen]D(NMe2)T[Trp(7-Me)]E(NMe2)[Pen]Y(X3)[2Nal][Thp]E(NMe2)N[3Pal][Sar]-NMe2; disulfide 1-6)
5.4	158	CC(=O)NCCCC[C@@H]1NC(=O)[C@H](Cc2c[nH]c3c(C)cccc23)NC(=O)[C@H]([C@@H](C)O)NC(=O)[C@H](CC(N)=O)NC(=O)[C@@H](NC(=O)CCCCC[N+](C)(C)C)C(C)(C)SSC(C)(C)[C@@H](C(=O)N[C@@H](Cc2ccc(OCCN(C)C)cc2)C(=O)N[C@@H](Cc2ccc3ccccc3c2)C(=O)NC2(C(=O)N[C@@H](CNC(C)=O)C(=O)N[C@@H](CC(N)=O)C(=O)N[C@@H](Cc3cccnc3)C(=O)N(C)CC(N)=O)CCOCC2)NC1=O [compound 103] ({Hexanoyl(6-NMe3+)}-[Pen]NT[Trp(7-Me)]K(Ac)[Pen]Y(Me2NCH2CH2)[2Nal][Thp][Dap](Ac)N[3Pal][Sar]-NH2; disulfide 1-6 (inferred))
6.5	153	CC(=O)N[C@@H]1C(=O)N[C@@H](CC(=O)N(C)C)C(=O)N[C@@H]([C@@H](C)O)C(=O)N[C@@H](Cc2c[nH]c3c(C)cccc23)C(=O)N[C@@H](CCCCN(C)C(C)=O)C(=O)N[C@H](C(=O)N[C@@H](Cc2ccc(OCCN(C)C)cc2)C(=O)N[C@@H](Cc2ccc3ccccc3c2)C(=O)NC2(C(=O)N[C@@H](CCC(=O)O)C(=O)N[C@@H](CC(N)=O)C(=O)N[C@@H](Cc3cccnc3)C(=O)N(C)CC(=O)N(C)C)CCOCC2)C(C)(C)SSC1(C)C [compound 106, MeCO-Pen(3)-N(N(Me)2)-T-7MeW-K(NMeAc)-Pen(3)-AEF(N(Me)2)-2Nal-THP-E-N-3Pya-Sar-CON(Me)2] (Ac-[Pen]D(NMe2)T[Trp(7-Me)][Lys(Me)](Ac)[Pen]Y(Me2NCH2CH2)[2Nal][Thp]EN[3Pal][Sar]-NMe2; disulfide 1-6 (inferred))
3.8	169	COCCOCCN(C)C(=O)CN(C)C(=O)[C@H](Cc1cccnc1)NC(=O)[C@H](CC(N)=O)NC(=O)[C@H](CCC(=O)O)NC(=O)C1(NC(=O)[C@H](Cc2ccc3ccccc3c2)NC(=O)[C@H](Cc2ccc(OCCN)cc2)NC(=O)[C@H]2NC(=O)[C@H](CCCCNC(C)=O)NC(=O)[C@H](Cc3c[nH]c4c(C)cccc34)NC(=O)[C@H]([C@@H](C)O)NC(=O)[C@H](CC(N)=O)NC(=O)[C@@H](NC(C)=O)C(C)(C)SSC2(C)C)CCOCC1 [compound 113] (Ac-[Pen]NT[Trp(7-Me)]K(Ac)[Pen][AEF][2Nal][Thp]EN[3Pal][Sar]-X25; disulfide 1-6 (inferred))
28	173	CC(=O)NCCCC[C@@H]1NC(=O)[C@H](Cc2c[nH]c3c(C)cccc23)NC(=O)[C@H]([C@@H](C)O)NC(=O)[C@H](CC(N)=O)NC(=O)[C@@H](NC(C)=O)C(C)(C)SSC(C)(C)[C@@H](C(=O)N[C@@H](Cc2ccc(OCCN)cc2)C(=O)N[C@@H](Cc2ccc3ccccc3c2)C(=O)NC2(C(=O)N[C@@H](CCC(=O)O)C(=O)N[C@@H](CC(N)=O)C(=O)N[C@@H](Cc3cccnc3)C(=O)N(C)CC(=O)N3CCN(C)CC3)CCOCC2)NC1=O [compound 114] (Ac-[Pen]NT[Trp(7-Me)]K(Ac)[Pen][AEF][2Nal][Thp]EN[3Pal][Sar]-{Piperazinyl(4-Me)}; disulfide 1-6 (inferred))
2.1	138	CC(=O)N[C@@H]1C(=O)N[C@@H](CC(=O)N(C)C)C(=O)N[C@@H]([C@@H](C)O)C(=O)N[C@@H](Cc2c[nH]c3c(C)cccc23)C(=O)N[C@@H](CCC(=O)N(C)C)C(=O)N[C@H](C(=O)N[C@@H](Cc2ccc(OCCN(C)C)cc2)C(=O)N[C@@H](Cc2ccc3ccccc3c2)C(=O)NC2(C(=O)N[C@@H](CCC(=O)N(C)C)C(=O)N[C@@H](CC(N)=O)C(=O)N[C@@H](Cc3cccnc3)C(=O)N(C)CC(=O)N(C)C)CCOCC2)C(C)(C)SSC1(C)C [compound 118, MeCO-Pen(3)-N(N(Me)2)-T-7MeW-Q(N(Me)2)-Pen(3)-AEF(N(Me)2)-2Nal-THP-Q(N(Me)2)-N-3Pya-Sar-CON(Me)2] (Ac-[Pen]D(NMe2)T[Trp(7-Me)]E(NMe2)[Pen]Y(Me2NCH2CH2)[2Nal][Thp]E(NMe2)N[3Pal][Sar]-NMe2; disulfide 1-6 (inferred))
6.3	159	CC(=O)N[C@@H]1C(=O)N[C@@H](C)C(=O)N[C@@H]([C@@H](C)O)C(=O)N[C@@H](Cc2c[nH]c3c(C)cccc23)C(=O)N[C@@H](C)C(=O)N[C@H](C(=O)N[C@@H](Cc2ccc(OCCN(C)C)cc2)C(=O)N[C@@H](Cc2ccc3ccccc3c2)C(=O)NC2(C(=O)N[C@@H](CCC(=O)O)C(=O)N[C@@H](CC(N)=O)C(=O)N[C@@H](Cc3cccnc3)C(=O)N(C)CC(=O)N(C)C)CCOCC2)C(C)(C)SSC1(C)C [compound 119] (Ac-[Pen]AT[Trp(7-Me)]A[Pen]Y(Me2NCH2CH2)[2Nal][Thp]EN[3Pal][Sar]-NMe2; disulfide 1-6 (inferred))
13	145	CC(=O)N[C@@H]1C(=O)N[C@@H](C)C(=O)N[C@@H]([C@@H](C)O)C(=O)N[C@@H](Cc2c[nH]c3c(C)cccc23)C(=O)N[C@@H](C)C(=O)N[C@H](C(=O)N[C@@H](Cc2ccc(OCCN(C)C)cc2)C(=O)N[C@@H](Cc2ccc3ccccc3c2)C(=O)NC2(C(=O)N[C@@H](C)C(=O)N[C@@H](CC(N)=O)C(=O)N[C@@H](Cc3cccnc3)C(=O)N(C)CC(=O)N(C)C)CCOCC2)C(C)(C)SSC1(C)C [compound 121] (Ac-[Pen]AT[Trp(7-Me)]A[Pen]Y(Me2NCH2CH2)[2Nal][Thp]AN[3Pal][Sar]-NMe2; disulfide 1-6)
2.1	141	CC(=O)N[C@@H]1C(=O)N[C@@H](CC(=O)N(C)C)C(=O)N[C@@H]([C@@H](C)O)C(=O)N[C@@H](Cc2c[nH]c3c(C)cccc23)C(=O)N[C@@H](CCCCN(C)C(C)=O)C(=O)N[C@H](C(=O)N[C@@H](Cc2ccc(OCCN(C)C)cc2)C(=O)N[C@@H](Cc2ccc3ccccc3c2)C(=O)NC2(C(=O)N[C@@H](CCCCN(C)C(C)=O)C(=O)N[C@@H](CC(N)=O)C(=O)N[C@@H](Cc3cccnc3)C(=O)N(C)CC(=O)N(C)C)CCOCC2)C(C)(C)SSC1(C)C [compound 122, MeCO-Pen(3)-N(N(Me)2)-T-7MeW-K(NMeAc)-Pen(3)-AEF(N(Me)2)-2Nal-THP-K(NMeAc)-N-3Pya-Sar-CON(Me)2] (Ac-[Pen]D(NMe2)T[Trp(7-Me)][Lys(Me)](Ac)[Pen]Y(Me2NCH2CH2)[2Nal][Thp][Lys(Me)](Ac)N[3Pal][Sar]-NMe2; disulfide 1-6)
2	181	CC(=O)NCCCC[C@@H]1NC(=O)[C@H](Cc2c[nH]c3c(C)cccc23)NC(=O)[C@H]([C@@H](C)O)NC(=O)[C@H](CC(N)=O)NC(=O)[C@@H](NC(=O)[C@@H](CCC(=O)N[C@H](CC(=O)O)C[N+](C)(C)C)NC(C)=O)C(C)(C)SSC(C)(C)[C@@H](C(=O)N[C@@H](Cc2ccc(OCCN)cc2)C(=O)N[C@@H](Cc2ccc3ccccc3c2)C(=O)NC2(C(=O)N[C@@H](CCCCNC(C)=O)C(=O)N[C@@H](CC(N)=O)C(=O)N[C@@H](Cc3cccnc3)C(=O)N(C)CC(N)=O)CCOCC2)NC1=O [compound 125] (Ac-[dE](X19)[Pen]NT[Trp(7-Me)]K(Ac)[Pen][AEF][2Nal][Thp]K(Ac)N[3Pal][Sar]-NH2; disulfide 2-7 (inferred))
3.4	164	CC(=O)N[C@@H]1C(=O)N[C@@H](CC(=O)N(C)C)C(=O)N[C@@H]([C@@H](C)O)C(=O)N[C@@H](Cc2c[nH]c3c(C)cccc23)C(=O)N[C@@H](CCN(C)C(=O)COCCOCC[N+](C)(C)C)C(=O)N[C@H](C(=O)N[C@@H](Cc2ccc(OCCN)cc2)C(=O)N[C@@H](Cc2ccc3ccccc3c2)C(=O)NC2(C(=O)N[C@@H](CCC(=O)O)C(=O)N[C@@H](CC(N)=O)C(=O)N[C@@H](Cc3cccnc3)C(=O)N(C)CC(=O)N(C)C)CCOCC2)C(C)(C)SSC1(C)C [compound 130, MeCO-Pen(3)-N(N(Me)2)-T-7MeW-Dab(NMecPEG2a)-Pen(3)-AEF-2Nal-THP-E-N-3Pya-Sar-CON(Me)2] (Ac-[Pen]D(NMe2)T[Trp(7-Me)][X1](X5)[Pen][AEF][2Nal][Thp]EN[3Pal][Sar]-NMe2; disulfide 1-6)
